From ChEMBL document CHEMBL1201862, “PubChem BioAssay data set” (2004)
“And” between values parts separate entries of the source, which are not always exact repeats. Equal values may be shown once.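 These data come from cells grown in 96-well plates and exposed to compound for 48 hours at five concentrations. At the GI50, growth is halved.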 The source made the active and inactive calls. Cut-off read from the data, not from the text of the source: active = GI50 up to about 1.1 µM and inactive = higher.

What was measured:
Test in all cases: DTP human tumour cell line panel, 48 h
BT-549 = system: BT-549
A549 = system: A549
COLO 205 = system: COLO 205
HT-29 = system: HT-29
HL-60 = system: HL-60
MOLT-4 = system: MOLT-4
T47D = system: T47D
SK-MEL-2 = system: SK-MEL-2
NCI/ADR-RES = system: NCI/ADR-RES
SK-MEL-5 = system: SK-MEL-5
IGROV-1 = system: IGROV-1
UACC-257 = system: UACC-257
SK-MEL-28 = system: SK-MEL-28
LOX IMVI = system: LOX IMVI
OVCAR-4 = system: OVCAR-4
A498 = system: A498
NCI-H460 = system: NCI-H460
SNB-75 = system: SNB-75
OVCAR-3 = system: OVCAR-3
HOP-92 = system: HOP-92

Measured: GI50

COc1ccc(-c2nc(SC)n(C3OC(COC(C)=O)C(OC(C)=O)C(OC(C)=O)C3OC(C)=O)c(=O)c2C#N)cc1 (stereo unspecified)
inactive: BT-549 > 100 µM | A549 59 µM | COLO 205 > 100 µM | HT-29 > 100 µM | HL-60 > 100 µM | MOLT-4 68.4 µM | T47D 95.7 µM | SK-MEL-2 > 100 µM and 73.3 µM | NCI/ADR-RES 79.8 µM | SK-MEL-5 > 100 µM | IGROV-1 > 100 µM | UACC-257 > 100 µM | SK-MEL-28 > 100 µM and 72.1 µM | LOX IMVI 56.4 µM

Cc1ccc(CC2(OCCN(C)C)CCC(C(C)(C)C)CC2)cc1 (stereo unspecified)
inactive: OVCAR-4 4.16 µM | BT-549 4.61 µM | A549 3.6 µM | COLO 205 2.05 µM | HT-29 2.13 µM | MOLT-4 1.71 µM | A498 13 µM | NCI-H460 1.99 µM | T47D 2.87 µM | SNB-75 6.81 µM | SK-MEL-2 1.97 µM | NCI/ADR-RES 6.73 µM | SK-MEL-5 1.58 µM | IGROV-1 6.5 µM | UACC-257 2.65 µM | OVCAR-3 9.68 µM | SK-MEL-28 1.88 µM | LOX IMVI 1.57 µM
active: HL-60 0.767 µM

CNCCN[C@@H]1c2cc3c(cc2[C@@H](c2cc(OC)c(O)c(OC)c2)[C@H]2C(=O)OC[C@@H]21)OCO3
active: BT-549 0.207 µM | A549 0.0708 µM | HT-29 0.494 µM | HL-60 < 0.016 µM | MOLT-4 0.0104 µM | NCI-H460 < 0.01 µM | T47D 0.138 µM | SNB-75 0.274 µM | SK-MEL-2 0.44 µM | SK-MEL-5 0.148 µM | IGROV-1 0.418 µM | UACC-257 0.652 µM | OVCAR-3 0.968 µM | SK-MEL-28 0.665 µM | LOX IMVI 0.153 µM
inactive: OVCAR-4 5.3 µM | COLO 205 1.23 µM | NCI/ADR-RES 68.2 µM

CCSc1cc(C(=O)OC)c2n(c1=O)CCCC2
inactive: OVCAR-4 > 100 µM | BT-549 > 100 µM | A549 > 100 µM | COLO 205 > 100 µM | HT-29 > 100 µM | HL-60 > 100 µM | MOLT-4 > 100 µM | A498 > 100 µM | T47D > 100 µM | SNB-75 > 100 µM | SK-MEL-2 > 100 µM | NCI/ADR-RES > 100 µM | SK-MEL-5 > 100 µM | IGROV-1 > 100 µM | UACC-257 > 100 µM | SK-MEL-28 > 100 µM | LOX IMVI > 100 µM

CCN(CC)CCNc1ccc2nnn3c4ccc(OC(C)=O)cc4c(=O)c1c23
inactive: OVCAR-4 2.36 µM | BT-549 13.4 µM | A549 3.14 µM | COLO 205 2.45 µM | HT-29 1.47 µM | HOP-92 3.9 µM | A498 6.76 µM | T47D 15.8 µM | SK-MEL-2 14.8 µM | NCI/ADR-RES 4.45 µM | SK-MEL-5 1.88 µM | UACC-257 9.84 µM | OVCAR-3 7.96 µM | SK-MEL-28 13.4 µM | LOX IMVI 1.47 µM
active: MOLT-4 0.284 µM | NCI-H460 0.243 µM | IGROV-1 0.224 µM

CC1(C)OC2C(CO)OC(n3ccc(N)nc3=O)C2O1 (stereo unspecified)
inactive: BT-549 > 100 µM | A549 > 100 µM | COLO 205 > 100 µM | HL-60 > 100 µM | MOLT-4 > 100 µM | HOP-92 > 100 µM | A498 21.5 µM | NCI-H460 > 100 µM | T47D > 100 µM | SK-MEL-2 > 100 µM | NCI/ADR-RES > 100 µM | SK-MEL-5 > 100 µM | IGROV-1 > 100 µM | UACC-257 > 100 µM | OVCAR-3 > 100 µM | SK-MEL-28 > 100 µM | LOX IMVI > 100 µM

CCC(=O)NC(Nc1ccccc1F)(C(F)(F)F)C(F)(F)F
inactive: OVCAR-4 > 100 µM | BT-549 > 100 µM | A549 > 100 µM | COLO 205 > 100 µM | HT-29 > 100 µM | HL-60 > 100 µM | MOLT-4 > 100 µM | HOP-92 > 100 µM | NCI-H460 > 100 µM | T47D 40.9 µM | SNB-75 > 100 µM | SK-MEL-2 > 100 µM | NCI/ADR-RES > 100 µM | SK-MEL-5 > 100 µM | IGROV-1 > 100 µM | UACC-257 > 100 µM | OVCAR-3 > 100 µM | SK-MEL-28 > 100 µM | LOX IMVI > 100 µM

COc1ccc(OC)c(C(=O)c2cccc(C(=O)c3cc(OC)ccc3OC)n2)c1
inactive: OVCAR-4 > 100 µM | BT-549 22.9 µM | A549 42.9 µM | COLO 205 32.1 µM | HT-29 35.7 µM | HL-60 18.5 µM | MOLT-4 30.8 µM | NCI-H460 36.3 µM | T47D 29.6 µM | SNB-75 19.9 µM | SK-MEL-2 23 µM | NCI/ADR-RES 29 µM | SK-MEL-5 15 µM | IGROV-1 38.8 µM | UACC-257 53.2 µM | SK-MEL-28 41 µM | LOX IMVI 25.5 µM

CC1(C)OC[C@@H]([C@@]2(COC(c3ccccc3)(c3ccccc3)c3ccccc3)CC=CC(=O)O2)O1
inactive: OVCAR-4 28.2 µM | BT-549 24.2 µM | A549 40.7 µM | COLO 205 20.1 µM | HT-29 35 µM | HL-60 33.7 µM | MOLT-4 28.3 µM | HOP-92 19.4 µM | A498 22 µM | NCI-H460 32.1 µM | T47D 48.5 µM | SNB-75 14.2 µM | SK-MEL-2 11.2 µM | UACC-257 43.5 µM | OVCAR-3 35.2 µM | SK-MEL-28 32 µM | LOX IMVI 32.4 µM

N#C/C(=C\c1ccc(F)cc1)c1nc(-c2cc3ccccc3oc2=O)cs1
inactive: OVCAR-4 10.4 µM | BT-549 12.3 µM | A549 55.5 µM | COLO 205 > 100 µM | HT-29 40.1 µM | HL-60 > 100 µM | MOLT-4 > 100 µM | HOP-92 10.3 µM | NCI-H460 33.5 µM | T47D 24.2 µM | SNB-75 7.01 µM | SK-MEL-2 30.3 µM | NCI/ADR-RES 30.9 µM | SK-MEL-5 15.3 µM | IGROV-1 22.6 µM | UACC-257 20.7 µM | SK-MEL-28 44.7 µM | LOX IMVI 87.7 µM

CCCCCC/C=C\CCCCCCCCCc1c(O)c(OC)cc(O)c1CN(C)C
inactive: OVCAR-4 1.47 µM | BT-549 9.2 µM | A549 4.04 µM | COLO 205 1.92 µM | HT-29 4.44 µM | HL-60 1.6 µM | MOLT-4 1.69 µM | A498 17 µM | NCI-H460 3.67 µM | T47D 1.76 µM | SNB-75 2.79 µM | SK-MEL-2 20.7 µM | NCI/ADR-RES 5.89 µM | SK-MEL-5 5.41 µM | IGROV-1 3.18 µM | UACC-257 11.4 µM | OVCAR-3 6.35 µM | SK-MEL-28 13.2 µM | LOX IMVI 3.2 µM

Nc1ccc(Nc2cc(=O)[nH]c(=O)[nH]2)cc1Cl
inactive: OVCAR-4 > 100 µM | BT-549 > 100 µM | A549 > 100 µM | COLO 205 > 100 µM | HT-29 > 100 µM | HL-60 > 100 µM | MOLT-4 > 100 µM | HOP-92 > 100 µM | A498 > 100 µM | NCI-H460 > 100 µM | T47D > 100 µM | SK-MEL-2 > 100 µM | NCI/ADR-RES > 100 µM | SK-MEL-5 > 100 µM | UACC-257 > 100 µM | OVCAR-3 > 100 µM | SK-MEL-28 > 100 µM | LOX IMVI > 100 µM

Cc1cc(N(C)C)ccc1/N=N/c1ccc2ncccc2c1
inactive: BT-549 35.2 µM | A549 > 100 µM | COLO 205 33.9 µM | HT-29 35.3 µM | HL-60 19.9 µM | MOLT-4 16.8 µM | HOP-92 > 100 µM | NCI-H460 27.4 µM | T47D 16.9 µM | SNB-75 25.4 µM | SK-MEL-2 > 100 µM | NCI/ADR-RES > 100 µM | SK-MEL-5 17.2 µM | IGROV-1 86.3 µM | UACC-257 98.4 µM

FC(F)(F)C1(C(F)(F)F)OC(Cl)(Cl)C(Cl)(Cl)O1
inactive: OVCAR-4 > 10 µM | BT-549 > 10 µM | A549 > 10 µM | COLO 205 > 10 µM | HT-29 > 10 µM | HOP-92 > 10 µM | A498 > 10 µM | NCI-H460 > 10 µM | T47D > 10 µM | SK-MEL-2 > 10 µM | NCI/ADR-RES > 10 µM | SK-MEL-5 > 10 µM | IGROV-1 > 10 µM | UACC-257 > 10 µM | OVCAR-3 > 10 µM | SK-MEL-28 > 10 µM | LOX IMVI > 10 µM

CCOP(=O)(OCC)C(Cc1ccc(Cl)cc1)NS(=O)(=O)c1ccc(C)cc1 (stereo unspecified)
inactive: OVCAR-4 > 100 µM | BT-549 > 100 µM | A549 > 100 µM | COLO 205 > 100 µM | HT-29 > 100 µM | HL-60 > 100 µM | MOLT-4 > 100 µM | HOP-92 > 100 µM | A498 > 100 µM | NCI-H460 > 100 µM | T47D > 100 µM | SK-MEL-2 > 100 µM | NCI/ADR-RES > 100 µM | SK-MEL-5 > 100 µM | IGROV-1 > 100 µM | UACC-257 35.5 µM | OVCAR-3 > 100 µM | SK-MEL-28 > 100 µM | LOX IMVI > 100 µM

O=c1c2ccc(S(=O)(=O)c3ccc4c(=O)n5c6ccccc6nc5c5cccc3c45)c3cccc(c32)c2nc3ccccc3n12
inactive: BT-549 20 µM | A549 > 100 µM | COLO 205 > 100 µM | HT-29 > 100 µM | NCI-H460 > 100 µM | T47D 36.6 µM | SK-MEL-2 21.3 µM | NCI/ADR-RES > 100 µM | SK-MEL-5 > 100 µM | IGROV-1 1.98 µM | UACC-257 > 100 µM | OVCAR-3 > 100 µM | SK-MEL-28 > 100 µM | LOX IMVI > 100 µM
